Measured values from patent publication US20140051679A1, “KINASE INHIBITORS AND METHOD OF TREATING CANCER WITH SAME” (UNIVERISTY HEALTH NETWORKS, priority 2011, published 2014).
pIC50: −log10 of the molar value.

Key:
human PLK4 = biological target: T1, human PLK4 (Homo sapiens, UniProt O00444); experiment: PLK4 inhibition assay (indirect ELISA); type: biochemical; conditions: GST-PLK4 4 nM, 15 μM ATP; read-out: IC50 Ranges PLK4
T1 construct: amino terminal GST fusion of residues 1-391 of human PLK4; made in house; host or cells: E. coli
T1 sequence (O00444 1-391): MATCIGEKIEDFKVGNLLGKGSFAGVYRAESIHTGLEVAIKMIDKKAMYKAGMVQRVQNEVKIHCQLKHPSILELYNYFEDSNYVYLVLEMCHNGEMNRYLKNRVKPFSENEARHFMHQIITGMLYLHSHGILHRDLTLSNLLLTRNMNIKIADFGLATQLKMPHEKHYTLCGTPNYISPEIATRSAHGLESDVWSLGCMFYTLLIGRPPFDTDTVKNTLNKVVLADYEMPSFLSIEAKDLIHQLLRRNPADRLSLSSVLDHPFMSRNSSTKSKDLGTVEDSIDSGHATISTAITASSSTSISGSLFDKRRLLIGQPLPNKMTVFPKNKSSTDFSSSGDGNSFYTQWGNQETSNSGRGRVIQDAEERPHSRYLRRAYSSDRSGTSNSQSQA
In short: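 Dephosphorylated GST-tagged human PLK4 (residues 1-391, E. coli), 4 nM, preincubated 15 min with compound, then reacted 30 min with 15 μM ATP on MBP-coated plates (50 mM HEPES pH 7.5, 10 mM MgCl2, 0.01% Brij 35). Phospho-MBP detected by antibody ELISA at 450 nm. Tested at 10 μM or 10-point titrations; IC50 from 4-parameter logistic fit.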

[1] = tested on: OVCAR-3 ovarian cancer cells; experiment: Cell growth inhibition, Sulforhodamine B assay, OVCAR-3; type: cell-based; conditions: Homo sapiens, 120 h, 5 days culture, SRB assay, read-out: Cell Line GI50 Range OVCAR-3
[2] = tested on: PA-1 ovarian cancer cells; experiment: Cell growth inhibition, Sulforhodamine B assay, PA-1; type: cell-based; conditions: 120 h, 5 days culture, SRB assay, read-out: Cell Line GI50 Range PA-1
human TTK = biological target: T2, human TTK (Homo sapiens, UniProt P33981); experiment: TTK inhibition assay (indirect ELISA); type: biochemical; conditions: GST-TTK 0.68 nM, 16 μM ATP; read-out: IC50 Ranges TTK
T2 construct: amino terminal GST fusion of full length human TTK; purchased Invitrogen
T2 sequence (P33981 1-857): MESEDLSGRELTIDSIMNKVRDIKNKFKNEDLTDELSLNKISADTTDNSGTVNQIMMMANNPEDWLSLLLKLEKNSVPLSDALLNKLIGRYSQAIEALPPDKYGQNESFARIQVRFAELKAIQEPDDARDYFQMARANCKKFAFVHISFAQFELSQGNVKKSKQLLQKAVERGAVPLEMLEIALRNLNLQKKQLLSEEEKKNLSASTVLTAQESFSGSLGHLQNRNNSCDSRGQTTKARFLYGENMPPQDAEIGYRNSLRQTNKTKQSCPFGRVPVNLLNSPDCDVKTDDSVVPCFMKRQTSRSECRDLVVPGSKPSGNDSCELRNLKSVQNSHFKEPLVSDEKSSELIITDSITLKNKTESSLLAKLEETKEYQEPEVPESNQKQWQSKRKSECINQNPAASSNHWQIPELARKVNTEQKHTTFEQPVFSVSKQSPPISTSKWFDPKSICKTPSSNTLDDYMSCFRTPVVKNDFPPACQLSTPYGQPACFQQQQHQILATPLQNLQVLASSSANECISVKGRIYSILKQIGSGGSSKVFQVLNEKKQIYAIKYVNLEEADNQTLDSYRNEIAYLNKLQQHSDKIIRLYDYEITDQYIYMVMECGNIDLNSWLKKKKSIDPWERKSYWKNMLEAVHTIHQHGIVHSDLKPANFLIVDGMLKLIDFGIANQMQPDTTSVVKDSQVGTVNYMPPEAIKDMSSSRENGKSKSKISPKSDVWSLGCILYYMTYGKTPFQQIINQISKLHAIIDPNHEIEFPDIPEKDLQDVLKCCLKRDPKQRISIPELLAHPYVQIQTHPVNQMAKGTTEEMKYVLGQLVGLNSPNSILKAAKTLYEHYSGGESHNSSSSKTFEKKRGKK

[3] = tested on: Colon tumor initiating cells (TICs), 12 colon; experiment: Colon tumor-initiating cell growth inhibition (Alamar Blue); type: cell-based; conditions: 216 h, 9 days, read-out: GI50 range 12 colon
Text: (§1) Materials and Methods: Non-tissue or tissure cultured treated T-75 flask and 96-well plates were purchased from VWR. Vitamin B-27 supplement, MEM NEAA (minimum essential medium non essential amino acids), sodium pyruvate, L-glutamine, N2 supplement, penicillin-streptomycin and fungizone/amphotericin B were obtained from Invitrogen. Lipid mixture, heparin and EGF were purchased from Sigma; bFGF from BD Biosciences. Colon tumor initiating cells (TICs) were routinely maintained using non-tissue cultured treated T-75 flasks in DMEM:F12 medium containing 0.2XB-27 supplement, 4 ug/ml heparin, 1XMEM NEAA, 1× sodium pyruvate, 1 mM glutamine, 10 pg/ul bFGF, 20 pg/ul EGF, 1×N2 supplement, lipid mixture, penicillin-streptomycin and fungizone/amphotericin B. Ovarian TICs were routinely maintained using tissue cultured treated T-75 flasks in DMEM:F12 medium containing 1XB-27 supplement, 4 ug/ml heparin, 20 pg/ul bFGF, 20 pg/ul EGF and penicillin-streptomycin.
(§2) Compounds described herein were dissolved in DMSO and further diluted in cell culture medium for GI50 determination. Colon TICs were trypsinized and seeded into non-tissue cultured treated 96-well plates with 4,000 cells/well. After 24 h, compound was added into the cell culture at different concentrations, and the final concentration of DMSO was adjusted to 0.1%. Cells were then cultured at 37° C. for 9 days. Ovarian TICs were trypsinized and seeded into tissue cultured treated 96-well plates with 1,000 cells/well. After 24 h, compound was added into the cell culture at different concentrations, and the final concentration of DMSO was adjusted to 0.1%. Cells were then cultured at 37° C. for 6 days. Cell viability was assessed by Alamar Blue assay: 10 ul of Alamar Blue was added into each well. After 4 hours incubation at 37° C., fluorescence was recorded at excitation 544 and emission 590. GI50 (Growth inhibition) was calculated using GraphPad Prism 4.0 software.

[4] = tested on: HCT116 colon cancer cells; experiment: Cell growth inhibition, Sulforhodamine B assay, HCT116; type: cell-based; conditions: Homo sapiens, HCT-116, 120 h, 5 days culture, SRB assay, read-out: Cell Line GI50 Range HCT116
[5] = tested on: Ovarian TICs, 2393A ovarian; experiment: Ovarian tumor-initiating cell growth inhibition (Alamar Blue); type: cell-based; conditions: 144 h, 6 days, read-out: GI50 range 2393A ovarian
Text: as §1, §2

Aurora B = biological target: T3, Aurora B (Homo sapiens, UniProt Q96GD4); experiment: Aurora B inhibition assay (Z-Lyte); type: biochemical; conditions: 28 nM Aurora B, 128 μM ATP; read-out: IC50 Ranges Aurora B
T3 construct: purchased Invitrogen PV3970
T3 sequence (Q96GD4 whole entry): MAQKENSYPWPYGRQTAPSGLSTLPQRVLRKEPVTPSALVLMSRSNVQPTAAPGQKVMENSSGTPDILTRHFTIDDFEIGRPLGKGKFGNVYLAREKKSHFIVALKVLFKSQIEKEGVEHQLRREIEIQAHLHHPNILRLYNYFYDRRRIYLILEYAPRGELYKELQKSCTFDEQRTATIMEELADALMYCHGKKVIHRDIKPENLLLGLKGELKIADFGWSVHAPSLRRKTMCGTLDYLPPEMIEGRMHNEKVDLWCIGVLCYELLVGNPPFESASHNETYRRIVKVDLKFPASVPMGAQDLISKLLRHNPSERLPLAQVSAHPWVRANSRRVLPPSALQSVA
Protocol: Aurora B inhibition was determined using the Z-Lyte assay kit from Invitrogen. The assay was performed using the recommended manufacturer's instructions with 128 μM ATP and 28 nM Aurora B (Invitrogen cat #PV3970). The % inhibition values were determined according to the manufacturer's directions and IC50 values were obtained using a non-linear 4 point logistic curve fit (XLfit4, IDBS)

[6] = tested on: MDA-MB-468 breast cancer cells; experiment: Cell growth inhibition, Sulforhodamine B assay, MDA-MB-468; type: cell-based; conditions: Homo sapiens, 120 h, 5 days culture, SRB assay, read-out: Cell Line GI50 Range MDA-MB-468
Protocol: (§3) Breast cancer cells (MDA-MB-231, MDA-MB-468), colon cancer cells (HCT116, HT29) and ovarian cancer cells (PA-1, OVCAR-3) were seeded (1000 to 4000 in 80 μl per well depending on the cell growth rate) into 96 well plates 24 hours before compound overlay. Compounds were prepared as 10 mM stock solutions in 100% DMSO which were diluted with DMEM (Dulbecco's Modified Eagle's Medium) cell growth Medium (Invitrogen, Burlington, ON, Canada) containing 10% FBS (Fetal Bovine Serum) to concentrations ranging from 50 nM to 250 μM. Aliquots (20 μl) from each concentration were overlaid to 80 μl of the pre-seeded cells in the 96 well plates to make final concentrations of 10 nM to 50 μM. The cells were cultured for 5 days before the Sulforhodamine B assay (SRB) was performed to determine the compound's cell growth inhibition activity.
(§4) Sulforhodamine B (purchased from Sigma, Oakville, ON, Canada) is a water-soluble dye that binds to the basic amino acids of the cellular proteins. Thus, colorimetric measurement of the bound dye provides an estimate of the total protein mass that is related to the cell number. the cells are fixed in situ by gently aspirating off the culture media and adding 50 μl ice cold 10% Trichloroacetic Acid (TCA) per well and incubate at 4° C. for 30-60 min, The plates are washed with water five times and allowed to air dry for 5 min. Addition of 50 μl 0.4% (w/v) SRB solution in 1% (v/v) acetic acid to each well and incubatation for 30 min at RT completes the staining reaction. Following staining, plates are washed four times with 1% acetic acid to remove unbound dye and then allowed to air dry for 5 min. The stain is solubilized with 100 μl of 10 mM Tris pH 10.5 per well. Absorbance is read at 570 nm.
(§5) The percentage (%) of relative growth inhibition was calculated by comparing to DMSO treated only cells (100%). […] The GI50 was calculated using GraphPad PRISM software (GraphPad Software, Inc., San Diego, Calif., USA).

HT29 colon cancer cells = experiment: Cell growth inhibition, Sulforhodamine B assay, HT29; type: cell-based; conditions: Homo sapiens, HT-29, 120 h, 5 days culture, SRB assay, read-out: Cell Line GI50 Range HT29
Protocol: as §3, §4, §5

[7] = tested on: MDA-MB-231 breast cancer cells; experiment: Cell growth inhibition, Sulforhodamine B assay, MDA-MB-231; type: cell-based; conditions: Homo sapiens, 120 h, 5 days culture, SRB assay, read-out: Cell Line GI50 Range MDA-MB-231

Row | SMILES | pIC50 (human PLK4) | GI50 [1] [µM] | GI50 [2] [µM] | pIC50 (human TTK) | GI50 [3] [µM] | GI50 [4] [µM] | GI50 [5] [µM] | pIC50 (Aurora B) | GI50 [6] [µM] | GI50 (HT29 colon cancer cells) [µM] | GI50 [7] [µM]
1 | COCCN1CCC(Oc2ccc(-c3n[nH]c4ccc(C(=O)N[C@H](c5cccs5)C5CC5)cc34)cc2)CC1 [Example A163, (S)—N-(cyclopropyl(thiophen-2-yl)methyl)-3-(4-((1-(2-methoxyethyl)piperidin-4-yl)oxy)phenyl)-1H-indazole-5-carboxamide] | ≥ 5.30 | ≤ 5 | ≤ 5 | ≥ 5.30 | ≤ 5 | ≤ 5 | ≤ 5 | ≥ 5.30 | ≤ 5 | ≤ 5 | ≤ 5
2 | CN1CCC(Oc2ccc(-c3n[nH]c4ccc(C(=O)N[C@@H](c5sccc5Cl)C5CC5)cc34)cc2)CC1 [Example A166, (R)—N-((3-chlorothiophen-2-yl)(cyclopropyl)methyl)-3-(4-((1-methylpiperidin-4-yl)oxy)phenyl)-1H-indazole-5-carboxamide] | ≥ 5.30 | ≤ 5 | ≤ 5 | ≥ 5.30 | ≤ 5 | ≤ 5 | ≤ 5 | ≥ 5.30 | ≤ 5 | ≤ 5 | ≤ 5
3 | CC[C@@H](NC(=O)c1ccc2[nH]nc(-c3ccc(OC4CCN(C)CC4)cc3)c2c1)c1cccc(OC)c1 [Example A174, (R)—N-(1-(3-methoxyphenyl)propyl)-3-(4-((1-methylpiperidin-4-yl)oxy)phenyl)-1H-indazole-5-carboxamide] | ≥ 5.30 | ≤ 5 | ≤ 5 | ≥ 5.30 | ≤ 5 | ≤ 5 | ≤ 5 | ≥ 5.30 | ≤ 5 | ≤ 5 | ≤ 5
4 | COCCN1CCC(Oc2ccc(-c3n[nH]c4ccc(NC(=O)C(c5ccsc5)N5CCCC5)cc34)cc2)CC1 (centres unmarked) [Example A175, N-(3-(4-((1-(2-methoxyethyl)piperidin-4-yl)oxy)phenyl)-1H-indazol-5-yl)-2-(pyrrolidin-1-yl)-2-(thiophen-3-yl)acetamide] | ≥ 5.30 | ≤ 5 | ≤ 5 | ≥ 5.30 | ≤ 5 | ≤ 5 | ≤ 5 | ≥ 5.30 | ≤ 5 | ≤ 5 | ≤ 5
5 | O=CN1CCC(Oc2ccc(-c3n[nH]c4ccc(NC(=O)C(c5ccccn5)C5CCCC5)cc34)cc2)CC1 (centres unmarked) [Example A176, 2-cyclopentyl-N-(3-(4-((1-formylpiperidin-4-yl)oxy)phenyl)-1H-indazol-5-yl)-2-(pyridin-2-yl)acetamide] | ≥ 5.30 | ≤ 5 | ≤ 5 | ≥ 5.30 | ≤ 5 | ≤ 5 | ≤ 5 | ≥ 5.30 | ≤ 5 | ≤ 5 | ≤ 5
6 | CN1CCC(Oc2ccc(-c3n[nH]c4ccc(C(=O)NC(c5ccccc5)C5CCOCC5)cc34)cc2)CC1 (centres unmarked) [Example A177, 3-(4-((1-methylpiperidin-4-yl)oxy)phenyl)-N-(phenyl(tetrahydro-2H-pyran-4-yl)methyl)-1H-indazole-5-carboxamide] | ≥ 5.30 | ≤ 5 | ≤ 5 | ≥ 5.30 | ≤ 5 | ≤ 5 | ≤ 5 | ≥ 5.30 | ≤ 5 | ≤ 5 | ≤ 5
7 | CN1[C@@H]2CC[C@H]1C[C@@H](Oc1ccc(-c3n[nH]c4ccc(C(=O)NC(c5ccccc5)C5CC5)cc34)cc1)C2 (stereo partly drawn) [Example A178, N-(cyclopropyl(phenyl)methyl)-3-(4-(((1R,3r,5S)-8-methyl-8-azabicyclo[3.2.1]octan-3-yl)oxy)phenyl)-1H-indazole-5-carboxamide] | ≥ 5.30 | ≤ 5 | ≤ 5 | ≥ 5.30 | ≤ 5 | ≤ 5 | ≤ 5 | ≥ 5.30 | ≤ 5 | ≤ 5 | ≤ 5
